Experimental data published in PMC8342319, “Predicting blood-to-plasma concentration ratios of drugs from chemical structures and volumes of distribution in humans” (Molecular Diversity, 2021).
Like-named read-outs stand apart in the source and are kept apart here.

Columns and labels:
[1] = cited from earlier work
[2] = human, cited from earlier work
[3] = Measurement of Rb (blood-to-plasma concentration ratio) in spiked human blood, LC-MS/MS; type: in vitro ADME; settings: footnote a: Rb is our experimental data; for blood plasma ratio at 30 min, 5 µM: read-out: Rb_Human (blood-to-plasma concentration ratio); for Rb_Human: blood-to-plasma concentration ratio
Experimental: Heparinized blood was collected from three to seven healthy volunteers not medicated for at least seven days. […] The blood was spiked with the compounds (final concentration of 5 µM) and incubated at 37 °C for 30 min. Following incubation, the samples were centrifuged at 5000 rpm for 5 min to obtain plasma. Subsequently, the concentrations of the compounds in the plasma were determined by LC–MS/MS using the same method as described for the measurement of PPB. Rb was calculated according to Eq. (2).

plasma protein [4] = test: Measurement of PPB by equilibrium dialysis in pooled human plasma (free fraction); settings: for fp_Human: footnote b: fu is our experimental data; for fraction unbound at 5 h, 5 µM: human
Experimental: (§1) Pooled human plasma was obtained from heparinized blood from nine to ten healthy volunteers not medicated for at least seven days. The human blood collection and PPB experimental protocols were approved by the Ethical Review Committee of Japan Tobacco Inc, Central Pharmaceutical Research Institute. Informed consent was obtained from all subjects, and the PPB experiments were conducted in accordance with the Ethical Guidelines for Medical and Health Research Involving Human Subjects. Binding of compounds to plasma protein was evaluated by equilibrium dialysis utilizing a 96-well equilibrium dialysis unit and HTD96b dialysis membrane strips with a molecular cutoff of 12–14 kDa (HTDialysis, Gales Ferry, CT, USA). Plasma containing the compounds (final concentration of 5 µM) and buffer (Dulbecco’s phosphate-buffered saline; Thermo Fisher Scientific, Waltham, MA) were added into the donor and receiver cells, respectively. Following dialysis for 5 h at 37 °C, the concentrations of the compounds in the plasma and buffer were determined by liquid chromatography–tandem mass spectrometry (LC–MS/MS) (Acquity™ Ultra Performance LC I-Class and Xevo TQ-S; Waters, Milford, MA). The percentage of free fraction (fu) was calculated according to the following equation [17]:1 Freefraction(fu,%)=Concentrationofbuffer/Concentrationofplasma×100

[5] = human
plasma protein [6] = test: in vitro; settings: human
Experimental: as §1

[7] = human; median if multiple values were reported; ref numbers in Table S1; cited from earlier work
[8] = human, intravenous, median if multiple values were reported, ref numbers in Table S1
[9] = intravenous, median if multiple values were reported, ref numbers in Table S1
[10] = human, intravenous, median if multiple values reported, Reference of Table S1
[11] = intravenous, median if multiple values reported, Reference of Table S1

Compound	in vivo CL_(L/hr/kg)_Human [1, 8]	in vivo Vd_(L/kg)_Human [2, 9]	blood plasma ratio at 30 min, 5 µM ([3]; heparinized human whole blood)	fp_Human (plasma protein [4]; human plasma free fraction)	fraction unbound at 5 h, 5 µM (plasma protein [4]; pooled human plasma)	in vivo MRT_(hr)_Human [5]	in vivo Vd_(L/kg)_Human [2, 11]	Rb_Human [3]	fp_Human (plasma protein [4]; free fraction in human plasma)	other results
CN(C)CCc1c[nH]c2ccc(CS(=O)(=O)N3CCCC3)cc12 [Almotriptan]	0.534 L/h/kg	2.200 L/kg	1.15	0.625	0.625	4.120 h				
CO/N=C(\C(=O)N[C@@H]1C(=O)N2C(C(=O)O)=C(CSc3nc(C)c(CC(=O)O)s3)CS[C@H]12)c1csc(N)n1 [Cefodizime]	0.037 L/h/kg	0.054 L/kg	0.57	0.097	0.097	1.475 h				
Cc1cc(O)c(C(=O)N[C@@H](C(=O)N[C@@H]2C(=O)N3C(C(=O)O)=C(CSc4nnnn4C)CS[C@H]23)c2ccc(O)cc2)cn1 [Cefpiramide]	0.029 L/h/kg	0.130 L/kg	0.53	0.039	0.039	4.514 h				
CO/N=C(\C(=O)N[C@@H]1C(=O)N2C(C(=O)O)=CCS[C@H]12)c1csc(N)n1 [Ceftizoxime]	0.126 L/h/kg	0.215 L/kg	0.54	0.995	0.995	1.706 h				
CN(C)CCCC1(c2ccc(F)cc2)OCc2cc(C#N)ccc21 (stereo not drawn) [Citalopram]	0.258 L/h/kg	13.000 L/kg	1.39	0.396	0.396	50.388 h				
O=P1(N(CCCl)CCCl)NCCCO1 (stereo not drawn) [Cyclophosphamide]				0.928		10.833 h				in vivo CL_(L/hr/kg)_Human ([1]; in vivo, iv): 0.078 L/h/kg; in vivo Vd_(L/kg)_Human ([2]; in vivo, iv): 0.715 L/kg; blood plasma ratio at 30 min, 5 µM ([3]; plasma): 0.92; fraction unbound at 5 h, 5 µM (plasma protein [4]; plasma): 0.928
O=C(O)Cc1ccccc1Nc1c(Cl)cccc1Cl [Diclofenac]	0.210 L/h/kg	0.220 L/kg	0.6	0.00216	0.00216	1.048 h				
CC(C)N(CCC(C(N)=O)(c1ccccc1)c1ccccn1)C(C)C (stereo not drawn) [Disopyramide]	0.099 L/h/kg	0.650 L/kg	0.81	0.204	0.204	12.037 h				
NC(N)=Nc1nc(CSCCC(N)=NS(N)(=O)=O)cs1 [Famotidine]	0.396 L/h/kg	1.200 L/kg	0.74	1.000	1	3.030 h				
NCC1(CC(=O)O)CCCCC1 [Gabapentin]	0.102 L/h/kg			1.000		7.500 h				fraction unbound (plasma protein [6]): 1; Rb_Human (blood-to-plasma concentration ratio) [7]: 1.10; in vivo Vd_(L/kg)_Human ([2]; in vivo, iv): 0.765 L/kg
C[C@H]1NCc2cc(-c3ccc4c(=O)c(C(=O)O)cn(C5CC5)c4c3OC(F)F)ccc21 [Garenoxacin]	0.074 L/h/kg	1.000 L/kg	0.72	0.236	0.236	13.550 h				
COc1ccc2c(c1)c(CC(=O)O)c(C)n2C(=O)c1ccc(Cl)cc1 [Indomethacin]	0.095 L/h/kg	0.595 L/kg	0.59	0.00361	0.00361	4.958 h				
CN(Cc1cnc2nc(N)nc(N)c2n1)c1ccc(C(=O)N[C@@H](CCC(=O)O)C(=O)O)cc1 [Methotrexate]	0.126 L/h/kg	0.550 L/kg	0.59	0.615	0.615					
O=C1NC(=O)C(c2ccccc2)(c2ccccc2)N1 [Phenytoin]							1.400 L/kg	0.72	0.131	in vivo CL_(L/hr/kg)_Human [1, 10]: 0.034 L/h/kg
CC1CCCC(C)N1CCCC(O)(c1ccccc1)c1ccccn1 (stereo not drawn) [Pirmenol]						12.500 h	1.350 L/kg	0.86	0.339	in vivo CL_(L/hr/kg)_Human [1, 10]: 0.108 L/h/kg
C[C@]12C=CC(=O)C=C1CC[C@@H]1[C@@H]2C(=O)C[C@@]2(C)[C@H]1CC[C@]2(O)C(=O)CO [Prednisone]						5.133 h	0.770 L/kg	0.90	0.447	
CC(C)NCC(O)COc1cccc2ccccc12 (stereo not drawn) [Propranolol]						4.653 h	3.350 L/kg	1.08	0.098	in vivo CL_(L/hr/kg)_Human [1, 10]: 0.720 L/h/kg
COc1cc(NCc2ccc3nc(N)nc(N)c3c2C)cc(OC)c1OC [Trimetrexate]							0.770 L/kg	0.66	0.047	in vivo CL_(L/hr/kg)_Human [1, 10]: 0.046 L/h/kg
COc1ccc(C(CN(C)C)C2(O)CCCCC2)cc1 (stereo not drawn) [Venlafaxine]							4.400 L/kg	1.19	0.684	in vivo CL_(L/hr/kg)_Human [1, 10]: 0.840 L/h/kg
CC[C@]1(O)C[C@@H]2CN(CCc3c([nH]c4ccccc34)[C@@](C(=O)OC)(c3cc4c(cc3OC)N(C)[C@H]3[C@@](O)(C(=O)OC)[C@H](OC(C)=O)[C@]5(CC)C=CCN6CC[C@]43[C@@H]65)C2)C1 [Vinblastine]						139.785 h	26.000 L/kg	0.92	0.176	
CC(=O)CC(c1ccccc1)c1c(O)c2ccccc2oc1=O (stereo not drawn) [Warfarin]						33.333 h	0.120 L/kg	0.52	0.005	
